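These data come from cells grown in 96-well plates and exposed to compound for 48 hours at five concentrations. GI50: concentration for 50% inhibition of growth. At the TGI there is no net growth.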
Columns and labels:
Experiment in all cases: inhibition of tumour cell growth, NCI panel, 48 h
786-0 renal = system: 786-0 renal
A498 renal = system: A498 renal
A549 NSCLC = system: A549 NSCLC
ACHN renal = system: ACHN renal
BT-549 breast = system: BT-549 breast
CAKI-1 renal = system: CAKI-1 renal
CCRF-CEM leukemia = system: CCRF-CEM leukemia
COLO 205 colon = system: COLO 205 colon
DU-145 prostate = system: DU-145 prostate
EKVX NSCLC = system: EKVX NSCLC
HCC-2998 colon = system: HCC-2998 colon
HCT-116 colon = system: HCT-116 colon
HCT-15 colon = system: HCT-15 colon
HL-60(TB) leukemia = system: HL-60(TB) leukemia
HOP-62 NSCLC = system: HOP-62 NSCLC
HOP-92 NSCLC = system: HOP-92 NSCLC
HS 578T breast = system: HS 578T breast
HT29 colon = system: HT29 colon
IGROV1 ovarian = system: IGROV1 ovarian
K-562 leukemia = system: K-562 leukemia
KM12 colon = system: KM12 colon
LOX IMVI melanoma = system: LOX IMVI melanoma
M14 melanoma = system: M14 melanoma
MALME-3M melanoma = system: MALME-3M melanoma
MCF7 breast = system: MCF7 breast
MDA-MB-231 breast = system: MDA-MB-231 breast
MDA-MB-435 = system: MDA-MB-435
MOLT-4 leukemia = system: MOLT-4 leukemia
NCI-H226 lung = system: NCI-H226 lung
NCI-H23 lung = system: NCI-H23 lung
NCI-H460 lung = system: NCI-H460 lung
NCI-H522 lung = system: NCI-H522 lung
NCI/ADR-RES ovarian = system: NCI/ADR-RES ovarian
OVCAR-3 ovarian = system: OVCAR-3 ovarian
OVCAR-4 ovarian = system: OVCAR-4 ovarian
OVCAR-5 ovarian = system: OVCAR-5 ovarian
OVCAR-8 ovarian = system: OVCAR-8 ovarian
PC-3 prostate = system: PC-3 prostate
RPMI-8226 leukemia = system: RPMI-8226 leukemia
RXF 393 renal = system: RXF 393 renal
SF-268 CNS = system: SF-268 CNS
SF-295 CNS = system: SF-295 CNS
SF-539 CNS = system: SF-539 CNS
SK-MEL-2 melanoma = system: SK-MEL-2 melanoma
SK-MEL-28 melanoma = system: SK-MEL-28 melanoma
SK-MEL-5 melanoma = system: SK-MEL-5 melanoma
SK-OV-3 ovarian = system: SK-OV-3 ovarian
SN12C renal = system: SN12C renal
SNB-19 CNS = system: SNB-19 CNS
SNB-75 CNS = system: SNB-75 CNS
SR leukemia = system: SR leukemia
SW-620 colon = system: SW-620 colon
T-47D breast = system: T-47D breast
TK-10 renal = system: TK-10 renal
U251 CNS = system: U251 CNS
UACC-257 melanoma = system: UACC-257 melanoma
UACC-62 melanoma = system: UACC-62 melanoma
UO-31 renal = system: UO-31 renal

With `COc1cc(/C=C\c2cc(/C=C\c3ccc(O)c(OC)c3)n(C(=O)COc3ccccc3)n2)ccc1O` the GI50 (786-0 renal) was 1060 nM, the TGI (786-0 renal) was 3580 nM and the GI50 (A498 renal) was 2680 nM. It also gave a TGI (A498 renal) of 6490 nM, a GI50 (A549 NSCLC) of 2420 nM and a TGI (A549 NSCLC) of 11100 nM. For the same compound, the GI50 (ACHN renal) was 490 nM, the TGI (ACHN renal) was 11100 nM and the GI50 (BT-549 breast) was 571 nM. It also gave a TGI (BT-549 breast) of 4030 nM, a GI50 (CAKI-1 renal) of 657 nM and a TGI (CAKI-1 renal) of 12400 nM. For the same compound, the GI50 (CCRF-CEM leukemia) was 281 nM, the TGI (CCRF-CEM leukemia) was 1340 nM and the GI50 (COLO 205 colon) was 1960 nM. For the same compound, the TGI (COLO 205 colon) was 3950 nM, the GI50 (DU-145 prostate) was 1370 nM and the TGI (DU-145 prostate) was 8060 nM. For the same compound, the GI50 (EKVX NSCLC) was 2530 nM, the TGI (EKVX NSCLC) was 10300 nM and the GI50 (HCC-2998 colon) was 2270 nM. It also gave a TGI (HCC-2998 colon) of 10200 nM, a GI50 (HCT-116 colon) of 386 nM and a TGI (HCT-116 colon) of 10000 nM. It also gave a GI50 (HCT-15 colon) of 416 nM, a TGI (HCT-15 colon) of 7960 nM and a GI50 (HL-60(TB) leukemia) of 282 nM. It also gave a TGI (HL-60(TB) leukemia) of 901 nM, a GI50 (HOP-62 NSCLC) of 1080 nM and a TGI (HOP-62 NSCLC) of 4950 nM. The GI50 (HOP-92 NSCLC) was 3130 nM, the TGI (HOP-92 NSCLC) was 20400 nM and the GI50 (HS 578T breast) was 1120 nM. For the same compound, the TGI (HS 578T breast) was 6840 nM, the GI50 (HT29 colon) was 2670 nM and the TGI (HT29 colon) was 6350 nM. The GI50 (IGROV1 ovarian) was 919 nM, the TGI (IGROV1 ovarian) was 8000 nM and the GI50 (K-562 leukemia) was 366 nM. It also gave a TGI (K-562 leukemia) of 10800 nM, a GI50 (KM12 colon) of 500 nM and a TGI (KM12 colon) of 6810 nM. For the same compound, the GI50 (LOX IMVI melanoma) was 550 nM, the TGI (LOX IMVI melanoma) was 3290 nM and the GI50 (M14 melanoma) was 343 nM. It also gave a TGI (M14 melanoma) of 2680 nM, a GI50 (MALME-3M melanoma) of 585 nM and a TGI (MALME-3M melanoma) of 3710 nM. It also gave a GI50 (MCF7 breast) of 343 nM, a TGI (MCF7 breast) of 2830 nM and a GI50 (MDA-MB-231 breast) of 2380 nM. It also gave a TGI (MDA-MB-231 breast) of 15300 nM, a GI50 (MDA-MB-435) of 210 nM and a TGI (MDA-MB-435) of 492 nM. For the same compound, the GI50 (MOLT-4 leukemia) was 368 nM, the TGI (MOLT-4 leukemia) was 3260 nM and the GI50 (NCI-H226 lung) was 3150 nM. It also gave a TGI (NCI-H226 lung) of 9940 nM, a GI50 (NCI-H23 lung) of 1330 nM and a TGI (NCI-H23 lung) of 6640 nM. It also gave a GI50 (NCI-H460 lung) of 1250 nM, a TGI (NCI-H460 lung) of 10200 nM and a GI50 (NCI-H522 lung) of 304 nM. The TGI (NCI-H522 lung) was 970 nM, the GI50 (NCI/ADR-RES ovarian) was 559 nM and the TGI (NCI/ADR-RES ovarian) was 11700 nM. The GI50 (OVCAR-3 ovarian) was 552 nM, the TGI (OVCAR-3 ovarian) was 2770 nM and the GI50 (OVCAR-4 ovarian) was 845 nM. It also gave a TGI (OVCAR-4 ovarian) of 12300 nM, a GI50 (OVCAR-5 ovarian) of 2750 nM and a TGI (OVCAR-5 ovarian) of 6810 nM. The GI50 (OVCAR-8 ovarian) was 2520 nM, the TGI (OVCAR-8 ovarian) was 8570 nM and the GI50 (PC-3 prostate) was 1600 nM. The TGI (PC-3 prostate) was over 100000 nM, the GI50 (RPMI-8226 leukemia) was 377 nM and the TGI (RPMI-8226 leukemia) was 2360 nM. The GI50 (RXF 393 renal) was 1000 nM, the TGI (RXF 393 renal) was 2520 nM and the GI50 (SF-268 CNS) was 651 nM. The TGI (SF-268 CNS) was 5650 nM, the GI50 (SF-295 CNS) was 2780 nM and the TGI (SF-295 CNS) was 7700 nM. It also gave a GI50 (SF-539 CNS) of 354 nM, a TGI (SF-539 CNS) of 2470 nM and a GI50 (SK-MEL-2 melanoma) of 661 nM. For the same compound, the TGI (SK-MEL-2 melanoma) was 3560 nM, the GI50 (SK-MEL-28 melanoma) was 1120 nM and the TGI (SK-MEL-28 melanoma) was 10400 nM. It also gave a GI50 (SK-MEL-5 melanoma) of 834 nM, a TGI (SK-MEL-5 melanoma) of 3520 nM and a GI50 (SK-OV-3 ovarian) of 1530 nM. For the same compound, the TGI (SK-OV-3 ovarian) was 3450 nM, the GI50 (SN12C renal) was 799 nM and the TGI (SN12C renal) was 7660 nM. The GI50 (SNB-19 CNS) was 1360 nM, the TGI (SNB-19 CNS) was 9590 nM and the GI50 (SNB-75 CNS) was 822 nM. It also gave a TGI (SNB-75 CNS) of 5300 nM, a GI50 (SR leukemia) of 318 nM and a TGI (SR leukemia) of 2460 nM. It also gave a GI50 (SW-620 colon) of 608 nM, a TGI (SW-620 colon) of 9020 nM and a GI50 (T-47D breast) of 1620 nM. It also gave a TGI (T-47D breast) of 6950 nM, a GI50 (TK-10 renal) of 2910 nM and a TGI (TK-10 renal) of 10900 nM. For the same compound, the GI50 (U251 CNS) was 564 nM, the TGI (U251 CNS) was 5960 nM and the GI50 (UACC-257 melanoma) was 2210 nM. It also gave a TGI (UACC-257 melanoma) of 7340 nM, a GI50 (UACC-62 melanoma) of 326 nM and a TGI (UACC-62 melanoma) of 1270 nM. The GI50 (UO-31 renal) was 302 nM and the TGI (UO-31 renal) was 4120 nM.

— PubChem BioAssay (NCI)
